{
  "source": "patent US20020137929A1",
  "about": "“1 - (3-heterocyclylphenyl) isothiourea, -isourea, -guanidine and -amidine herbicidal agents” (Intellectual Property Department, BASF Aktiengesellschaft, priority 1998, published 2002)",
  "key": {"[1]": {"tested_on": "ECHORC (Watergrass (Calif.))", "experiment": "Postemergence weed control under flooded paddy conditions", "format": "in vivo, Echinochloa oryzoides", "details": "postemergence weeds, 3-4 weeks after treatment", "method_in_brief": "(§1)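 Weeds 3 to 5 cm tall and rice seedlings at the 1.5 to 2.5 leaf stage were flooded, with water held 1.5 to 3 cm above the soil. Compounds in 50/50 v/v aqueous/acetone went into the flood water at about 0.0313 to 0.500 kg/ha. Visual 0-9 ratings versus control were made 3 to 4 weeks later.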"}, "[2]": {"tested_on": "TRZAWR (Wheat, Winter, cv Riband)", "experiment": "Postemergence herbicidal evaluation", "format": "in vivo, Triticum aestivum", "method_in_brief": "(§2)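 Herbicidal effect was judged by eye on a 0–9 scale covering stand, vigor, deformity, size and chlorosis, compared with controls, four to five weeks after seedlings about two weeks old were sprayed (40 psi, ~0.0156–0.500 kg/ha).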"}, "[3]": {"tested_on": "IPOHE (Morningglory, Ivyleaf)", "experiment": "Postemergence herbicidal evaluation", "format": "in vivo, Ipomoea hederacea", "method_in_brief": "as §2"}, "[4]": {"tested_on": "IPOHE (Morningglory, Ivyleaf)", "experiment": "Preemergence herbicidal evaluation", "format": "in vivo, Ipomoea hederacea", "details": "rated 4-5 weeks after treatment", "method_in_brief": "(§3)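 Rating at 4–5 wk post-spray on a 0–9 visual scale vs control. Application: aqueous acetone, ~0.0156–0.500 kg/ha, to soil surface after seeding, preemergence.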"}, "[5]": {"tested_on": "ECHORC (Watergrass (Calif.))", "experiment": "Preemergence weed control under flooded paddy conditions", "format": "in vivo, Echinochloa oryzoides", "details": "rated 3-4 weeks after treatment", "method_in_brief": "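Seeds or propagules sown in top 0.5 cm of silt loam soil, flooded 1.5 to 3 cm above surface throughout. Compound in 50/50 v/v aqueous/acetone pipetted into flood water at about 0.0313 to 0.500 kg/ha. Visual 0-9 rating versus control after three to four weeks in greenhouse.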"}, "SETVI (Foxtail, Green)": {"tested_on": "SETVI (Foxtail, Green)", "experiment": "Preemergence herbicidal evaluation", "format": "in vivo, Setaria viridis", "details": "rated 4-5 weeks after treatment", "method_in_brief": "as §3"}, "MOOVA (Monochoria)": {"tested_on": "MOOVA (Monochoria)", "experiment": "Preemergence weed control under flooded paddy conditions", "format": "in vivo, Monochoria vaginalis", "details": "rated 3-4 weeks after treatment", "method_in_brief": "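Ratings on a 0-9 visual scale cover stand, vigor, malformation, size, chlorosis and overall appearance relative to a control, taken three to four weeks post-treatment. Application was into flood water over freshly sown silt loam at roughly 0.0313 to 0.500 kg/ha.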"}, "ORYSAT (Rice, Tebonnet)": {"tested_on": "ORYSAT (Rice, Tebonnet)", "experiment": "Preemergence herbicidal evaluation", "format": "in vivo, Oryza sativa, (L.) Tebonnet", "details": "rated 4-5 weeks after treatment", "method_in_brief": "as §3"}, "[6]": {"tested_on": "CHEAL (Lambsquarters, Common)", "experiment": "Preemergence herbicidal evaluation", "format": "in vivo, Chenopodium album", "details": "rated 4-5 weeks after treatment", "method_in_brief": "as §3"}, "CYPIR (Rice Flatsedge)": {"tested_on": "CYPIR (Rice Flatsedge)", "experiment": "Postemergence weed control under flooded paddy conditions", "format": "in vivo, Cyperus iria", "details": "postemergence weeds, 3-4 weeks after treatment", "method_in_brief": "as §1"}, "[7]": {"tested_on": "TRZAWR (Wheat, Winter, cv Riband)", "experiment": "Preemergence herbicidal evaluation", "format": "in vivo, Triticum aestivum", "details": "rated 4-5 weeks after treatment", "method_in_brief": "as §3"}, "ABUTH (Velvetleaf)": {"tested_on": "ABUTH (Velvetleaf)", "experiment": "Postemergence herbicidal evaluation", "format": "in vivo, Abutilon theophrasti", "method_in_brief": "as §2"}, "ECHCG (Barnyardgrass)": {"tested_on": "ECHCG (Barnyardgrass)", "experiment": "Preemergence herbicidal evaluation", "format": "in vivo, Echinochloa crus-galli", "details": "rated 4-5 weeks after treatment", "method_in_brief": "as §3"}},
  "data": [
    {"smiles": "CCOC(=O)CN1C(=O)CS(=O)(=O)C1=Nc1cc(-n2c(=O)cc(C(F)(F)F)n(C)c2=O)c(F)cc1Cl", "note": "[Compound 46, 2-{{2-Chloro-5-[3,6-dihydro-3-methyl-2,6-dioxo-4-(trifluoromethyl)-1(2H)-pyrimidinyl]-4-fluoro-phenyl}imino}-4-oxo-3-thiazolidineacetic acid, ethyl ester, 1,1-dioxide]", "values": [
      {"measurement": "Herbicidal rating ECHORC", "setting": "[1]; rate 0.0313 kg/ha", "value": 0.0},
      {"measurement": "Herbicidal rating ECHORC", "setting": "[1]; rate 0.0625 kg/ha", "value": 0.0},
      {"measurement": "Herbicidal rating ECHORC", "setting": "[1]; rate 0.1250 kg/ha", "value": 0.0},
      {"measurement": "Herbicidal rating ECHORC", "setting": "[1]; rate 0.2500 kg/ha", "value": 4.0},
      {"measurement": "Postemergence herbicidal rating TRZAWR", "setting": "[2]; Rate 0.0313 kg/ha", "value": 2.0},
      {"measurement": "Postemergence herbicidal rating TRZAWR", "setting": "[2]; Rate 0.0625 kg/ha", "value": 3.0},
      {"measurement": "Postemergence herbicidal rating IPOHE", "setting": "[3]; Rate 0.0313 kg/ha", "value": 3.0},
      {"measurement": "Postemergence herbicidal rating IPOHE", "setting": "[3]; Rate 0.0625 kg/ha", "value": 9.0},
      {"measurement": "Preemergence herbicidal rating IPOHE", "setting": "[4]; rate 0.1250 kg/ha", "value": 0.0},
      {"measurement": "Preemergence herbicidal rating IPOHE", "setting": "[4]; rate 0.2500 kg/ha", "value": 1.0},
      {"measurement": "Herbicidal rating ECHORC", "setting": "[5]; 0.0313 kg/ha", "value": 0.0},
      {"measurement": "Herbicidal rating ECHORC", "setting": "[5]; 0.0625 kg/ha", "value": 0.0},
      {"measurement": "Herbicidal rating ECHORC", "setting": "[5]; 0.1250 kg/ha", "value": 0.0},
      {"measurement": "Herbicidal rating ECHORC", "setting": "[5]; 0.2500 kg/ha", "value": 4.0},
      {"measurement": "Preemergence herbicidal rating SETVI", "setting": "SETVI (Foxtail, Green); rate 0.1250 kg/ha", "value": 0.0},
      {"measurement": "Preemergence herbicidal rating SETVI", "setting": "SETVI (Foxtail, Green); rate 0.2500 kg/ha", "value": 0.0},
      {"measurement": "Herbicidal rating MOOVA", "setting": "MOOVA (Monochoria); 0.0313 kg/ha", "value": 3.0},
      {"measurement": "Herbicidal rating MOOVA", "setting": "MOOVA (Monochoria); 0.0625 kg/ha", "value": 4.0},
      {"measurement": "Herbicidal rating MOOVA", "setting": "MOOVA (Monochoria); 0.1250 kg/ha", "value": 6.0},
      {"measurement": "Herbicidal rating MOOVA", "setting": "MOOVA (Monochoria); 0.2500 kg/ha", "value": 7.0},
      {"measurement": "Preemergence herbicidal rating ORYSAT", "setting": "ORYSAT (Rice, Tebonnet); rate 0.1250 kg/ha", "value": 0.0},
      {"measurement": "Preemergence herbicidal rating ORYSAT", "setting": "ORYSAT (Rice, Tebonnet); rate 0.2500 kg/ha", "value": 0.0},
      {"measurement": "Preemergence herbicidal rating CHEAL", "setting": "[6]; rate 0.1250 kg/ha", "value": 9.0},
      {"measurement": "Preemergence herbicidal rating CHEAL", "setting": "[6]; rate 0.2500 kg/ha", "value": 9.0},
      {"measurement": "Herbicidal rating CYPIR", "setting": "CYPIR (Rice Flatsedge); rate 0.0313 kg/ha", "value": 0.0},
      {"measurement": "Herbicidal rating CYPIR", "setting": "CYPIR (Rice Flatsedge); rate 0.0625 kg/ha", "value": 0.0},
      {"measurement": "Herbicidal rating CYPIR", "setting": "CYPIR (Rice Flatsedge); rate 0.1250 kg/ha", "value": 0.0},
      {"measurement": "Herbicidal rating CYPIR", "setting": "CYPIR (Rice Flatsedge); rate 0.2500 kg/ha", "value": 0.0},
      {"measurement": "Preemergence herbicidal rating TRZAWR", "setting": "[7]; rate 0.1250 kg/ha", "value": 0.0},
      {"measurement": "Preemergence herbicidal rating TRZAWR", "setting": "[7]; rate 0.2500 kg/ha", "value": 0.0},
      {"measurement": "Postemergence herbicidal rating ABUTH", "setting": "ABUTH (Velvetleaf); Rate 0.0313 kg/ha", "value": 4.0},
      {"measurement": "Postemergence herbicidal rating ABUTH", "setting": "ABUTH (Velvetleaf); Rate 0.0625 kg/ha", "value": 9.0},
      {"measurement": "Preemergence herbicidal rating ECHCG", "setting": "ECHCG (Barnyardgrass); rate 0.1250 kg/ha", "value": 0.0},
      {"measurement": "Preemergence herbicidal rating ECHCG", "setting": "ECHCG (Barnyardgrass); rate 0.2500 kg/ha", "value": 0.0}
    ]}
  ]
}
